The source of these data is patent US6051605A, “Method of treating psychosis and schizophrenia” (priority 1999, dated 2000).

In this assay the target is T1, human recombinant dopamine D4.2 receptor (Homo sapiens, UniProt P21917, DEL265-296).
T1 construct: expressed in transfected cells; membranes
T1 sequence (P21917 with tags, fused parts or gaps DEL265-296): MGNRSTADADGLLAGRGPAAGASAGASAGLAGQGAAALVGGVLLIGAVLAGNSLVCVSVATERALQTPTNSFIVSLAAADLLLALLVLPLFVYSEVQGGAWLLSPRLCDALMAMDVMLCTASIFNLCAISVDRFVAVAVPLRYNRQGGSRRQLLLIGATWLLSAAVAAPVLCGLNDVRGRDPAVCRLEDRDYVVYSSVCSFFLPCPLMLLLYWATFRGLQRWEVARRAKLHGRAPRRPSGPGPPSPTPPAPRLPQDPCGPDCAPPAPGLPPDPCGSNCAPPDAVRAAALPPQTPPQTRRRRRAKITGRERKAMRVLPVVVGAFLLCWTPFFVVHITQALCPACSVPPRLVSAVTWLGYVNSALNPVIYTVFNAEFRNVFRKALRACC
As to the kind of experiment: Receptor binding assay, D4.2 dopamine receptor ([3H]spiperone competition).

SMILES strings stand for the structures. Structures can show the parent of a compound that is named as a salt.

What is called Ki is a dissociation constant, usually derived from enzyme kinetics or from competition with a known ligand. Regarding `COc1ccc(OCCCNCCCOc2ccc(OC)cc2)cc1` [Example 1q, Bis[3-(4-methoxy-phenoxy)-propyl]-amine hydrochloride], the Ki came to 1330 nM.
On to `Cc1ccc(OCCNCCCOc2ccccc2)cc1` [Example 2, (3-Phenoxy-propyl)-(2-p-tolyloxy-ethyl)-amine hydrochloride], for which the Ki came to 0.2 nM.
In the case of `O=[N+]([O-])c1ccc(OCCNCCCOc2ccccc2)cc1` [Example 2a, [2-(4-Nitro-phenoxy)-ethyl]-(3-phenoxy-propyl)-amine hydrochloride], the Ki amounted to 4.4 nM.
On to `CC(C)(C)c1ccc(OCCNCCCOc2ccccc2)cc1` [Example 2b, [2-(4-tert-Butyl-phenoxy)-ethyl]-(3-phenoxy-propyl)-amine hydrochloride], for which the Ki turned out to be 20.9 nM.
On to `CCOc1ccc(OCCNCCCOc2ccccc2)cc1` [Example 2c, [2-(4-Ethoxy-phenoxy)-ethyl]-(3-phenoxy-propyl)-amine hydrochloride], for which the Ki stood at 11.9 nM.
`c1ccc(OCCCNCCOc2ccc(-c3ccccc3)cc2)cc1` [Example 2e, [2-(Biphenyl-4-yloxy)-ethyl]-(3-phenoxy-propyl)-amine hydrochloride]: the inhibition constant Ki came out at 383 nM.
In the case of `Cc1ccc(OCCCNCCOc2ccc(C)cc2)cc1` [Example 3, (2-p-Tolyloxy-ethyl)-(3-p-tolyloxy-propyl)-amine hydrochloride], the inhibitory constant (Ki) amounted to 11.4 nM.
`Cc1ccc(OCCNCCCOc2ccc(Br)cc2)cc1` [Example 3b, [3-(4-Bromo-phenoxy)-propyl]-(2-p-tolyloxy-ethyl)-amine hydrochloride]: the Ki stood at 26.9 nM.
Turning to `Cc1ccc(OCCCNCCOc2ccc(Cl)cc2)cc1` [Example 3e, [2-(4-Chloro-phenoxy)-ethyl]-(3-p-tolyloxy-propyl)-amine hydrochloride], the Ki was 5.6 nM.
On to `Cc1ccc(OCCCNCCOc2ccccc2)cc1` [Example 3f, (2-Phenoxy-ethyl)-(3-p-tolyloxy-propyl)-amine hydrochloride], for which the Ki was 2.7 nM.
As to `Clc1ccc(OCCNCCCOc2ccc(Br)cc2)cc1` [Example 3g, [3-(4-Bromo-phenoxy)-propyl]-[2-(4-chloro-phenoxy)-ethyl]-amine hydrochloride], the inhibition constant Ki was found to be 37.8 nM.
As to `Fc1ccc(OCCCNCCOc2ccccc2)cc1` [Example 4, [3-(4-Fluoro-phenoxy)-propyl]-(2-phenoxy-ethyl)-amine hydrochloride], the Ki is 1.2 nM.
For `Brc1ccc(OCCCNCCCOc2ccc(Br)cc2)cc1` [Example 4a, Bis-[3-(4-bromo-phenoxy)-propyl]-amine hydrochloride], the Ki turned out to be 45.8 nM.
For `Cc1ccc(OCCCNCCCOc2ccc(C)cc2)cc1` [Example 4b, Bis(3-p-tolyloxy-propyl)-amine hydrochloride] the value was 136 nM.
For the compound `Cc1ccc(OCCNCCCOc2ccc(F)cc2)cc1` [Example 4c, [3-(4-Fluoro-phenoxy)-propyl]-(2-p-tolyloxy-ethyl)-amine hydrochloride], the Ki was 0.96 nM.
Regarding `Cc1ccc(SCCNCCCOc2ccccc2)cc1` [Example 4d, (3-Phenoxy-propyl)-(2-p-tolylsulfanyl-ethyl)-amine hydrochloride], the inhibition constant (Ki) turned out to be 30 nM.
With `Clc1ccc(SCCNCCCOc2ccccc2)cc1` [Example 4e, [2-(4-Chloro-phenylsulfanyl)-ethyl]-(3-phenoxy-propyl)-amine hydrochloride], the Ki amounted to 33.1 nM.
For `Clc1ccc(OCCNCCCSc2ccccc2)cc1` [Example 4f, [2-(4-Chloro-phenoxy)-ethyl]-(3-phenylsulfanyl-propyl)-amine hydrochloride], the Ki came to 1.7 nM.
As for `Cc1ccc(OCCNCCCSc2ccccc2)cc1` [Example 4g, (3-Phenylsulfanyl-propyl)-(2-p-tolyloxy-ethyl)-amine hydrochloride], the Ki was 1.2 nM.
For `Fc1ccc(OCCCNCCOc2ccc(Cl)cc2)cc1` [Example 4h, [2-(4-Chloro-phenoxy)-ethyl]-[3-(4-fluoro-phenoxy)-propyl]-amine hydrochloride], the Ki is 0.84 nM.
For `Cc1ccc(CCCNCCCOc2ccccc2)cc1` [Example 5, (3-Phenoxy-propyl)-(3-p-tolyl-propyl)-amine hydrochloride] the value was 4.7 nM.
Consider `COC(=O)c1ccc(OCCNCCCOc2ccccc2)cc1` [Example 6a, 4-[2-(3-Phenoxy-propylamino)-ethoxy]-benzoic acid methyl ester], for which the inhibition constant (Ki) was 10.9 nM.
For `N#Cc1ccc(OCCNCCCOc2ccccc2)cc1` [Example 6b, 4-[2-(3-Phenoxy-propylamino)-ethoxy]-benzonitrile], the Ki was 10.7 nM.
In the case of `Cc1ccc(OCCNCCOc2ccccc2)cc1` [Example 6d, (2-Phenoxy-ethyl)-(2-p-tolyloxy-ethyl)-amine hydrochloride], the Ki was determined as 103 nM.
Regarding `Cc1ccc(OCCNCCOc2ccc(C)cc2)cc1` [Example 6e, Bis-(2-p-tolyloxy-ethyl)-amine hydrochloride], the Ki is 74.9 nM.
For `COc1ccc(OCCNCCCOc2ccccc2)cc1` [Example 9d, [2-(4-Methoxy-phenoxy)-ethyl]-(3-phenoxy-propyl)-amine hydrochloride] the value was 5.4 nM.
With `Oc1ccc(OCCNCCCOc2ccccc2)cc1` [Example 11, 4-[2-(3-Phenoxy-propylamino)-ethoxy]-phenol hydrobromide], the inhibition constant (Ki) turned out to be 3.1 nM.
As to `O=C(O)c1ccc(OCCNCCCOc2ccccc2)cc1` [Example 15, 4-[2-(3-Phenoxy-propylamino)-ethoxy]-benzoic acid hydrochloride], the Ki was > 1000 nM.
The figure for `Cc1ccc(OCCNCC(O)COc2ccccc2)cc1` (stereo not shown) [Example 16g, 1-Phenoxy-3-(2-p-tolyloxy-ethylamino)-propan-2-ol] is 1.3 nM.
Consider `OC(CNCCOc1ccc(Cl)cc1)COc1ccccc1` (stereo not shown) [Example 16h, 1-[2-(4-Chloro-phenoxy)-ethylamino]-3-phenoxy-propan-2-ol], for which the inhibition constant (Ki) worked out at 2.1 nM.
For `Brc1ccc(OCCCNCCOc2ccccc2)cc1` [Example 16i, [3-(4-Bromo-phenoxy)-propyl]-(2-phenoxy-ethyl)-amine hydrochloride] the value was 6.1 nM.
